According to ChEMBL document CHEMBL1201862, “PubChem BioAssay data set” (2004):
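Step 1: Grow cells in 96-well plates. Step 2: Expose to compound for 48 hours at 5 concentrations. Step 3: Interpolate endpoints linearly; if unreached, use highest concentration. Here, GI50 denotes the concentration required for 50% inhibition of growth.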 Activity calls are given as the source filed them. Rule as the data show it: active = GI50 up to about 1.1 µM and inactive = higher.

Columns and labels:
Experiment in all cases: DTP human tumour cell line panel, 48 h
HT-29 = test system: HT-29
KM12 = test system: KM12
OVCAR-3 = test system: OVCAR-3
MDA-N = test system: MDA-N
NCI-H23 = test system: NCI-H23
M14 = test system: M14
A549 = test system: A549
DU-145 = test system: DU-145
SW-620 = test system: SW-620
BT-549 = test system: BT-549
Hs-578T = test system: Hs-578T
786-0 = test system: 786-0
PC-3 = test system: PC-3
COLO 205 = test system: COLO 205
U-251 = test system: U-251
T47D = test system: T47D
HOP-62 = test system: HOP-62
Malme-3M = test system: Malme-3M
NCI-H226 = test system: NCI-H226
NCI/ADR-RES = test system: NCI/ADR-RES

SMILES | GI50 (HT-29) | GI50 (KM12) | GI50 (OVCAR-3) | GI50 (MDA-N) | GI50 (NCI-H23) | GI50 (M14) | GI50 (A549) | GI50 (DU-145) | GI50 (SW-620) | GI50 (BT-549) | GI50 (Hs-578T) | GI50 (786-0) | GI50 (PC-3) | GI50 (COLO 205) | GI50 (U-251) | GI50 (T47D) | GI50 (HOP-62) | GI50 (Malme-3M) | GI50 (NCI-H226) | GI50 (NCI/ADR-RES)
COc1ccc2c(c1)CCN1CCc3ccccc3CC21 (stereo not given) | 27.8 µM (inactive) | 37.2 µM (inactive) | 72.4 µM (inactive) | 27.4 µM (inactive) | 39 µM (inactive) | 18.2 µM (inactive) | 49.7 µM (inactive) | 65.2 µM (inactive) | 45.3 µM (inactive) | 34 µM (inactive) | 72.6 µM (inactive) | 31.3 µM (inactive) | 30 µM (inactive) | 19.4 µM (inactive) | 34.7 µM (inactive) | 43.7 µM (inactive) | 72.8 µM (inactive) | 43.1 µM (inactive) | 29 µM (inactive) | 42.9 µM (inactive)
COc1cccc(/C=C\c2ccc(O)cc2)c1 | 21.3 µM (inactive) | 1.4 µM (inactive) | 16.8 µM (inactive) | 21.1 µM (inactive) | 15.1 µM (inactive) | 17.5 µM (inactive) | 16.9 µM (inactive) | 13.1 µM (inactive) | 15.2 µM (inactive) | 17.5 µM (inactive) | 19.7 µM (inactive) | 10.4 µM (inactive) | 11.7 µM (inactive) | 48.1 µM (inactive) | 11.2 µM (inactive) | 18.7 µM (inactive) | 34.6 µM (inactive) | 20.2 µM (inactive) | 28.2 µM (inactive) | 6.12 µM (inactive)
O[C@H]1[C@H]2c3cc4c(cc3CN3CCC(=C[C@@H]1O)[C@H]23)OCO4 [LYCORINE] | 1.46 µM (inactive) | 2.7 µM (inactive) | 2.47 µM (inactive) | 2.59 µM (inactive) | 2.42 µM (inactive) | 1.86 µM (inactive) | 1.39 µM (inactive) | 1.32 µM (inactive) | 2.61 µM (inactive) | 1.66 µM (inactive) | 2.91 µM (inactive) | 3.1 µM (inactive) | 1.45 µM (inactive) | 1.25 µM (inactive) | 1.99 µM (inactive) | 2.49 µM (inactive) | 1.78 µM (inactive) | 1.92 µM (inactive) | 2.76 µM (inactive) | 2.31 µM (inactive)
Cc1ccc2cccc(OC(=O)c3cc4c(cc3Cl)Sc3nccn3S4(=O)=O)c2n1 | 10 µM (inactive) | 5.75 µM (inactive) | 2.75 µM (inactive) | 14.4 µM (inactive) | 16.3 µM (inactive) | 8.79 µM (inactive) | 11.2 µM (inactive) | 5.83 µM (inactive) | 9.71 µM (inactive) | 17.4 µM (inactive) | 13.4 µM (inactive) | 17 µM (inactive) | 4.39 µM (inactive) | 15.8 µM (inactive) | 4.34 µM (inactive) | 4.44 µM (inactive) | 0.661 µM (active) | 17.5 µM (inactive) | 21 µM (inactive) | 14 µM (inactive)
O=C1C=C(NCCOCCO)C(=O)c2c(O)ccc(O)c21 | 20.4 µM (inactive) | 30.1 µM (inactive) | 23.6 µM (inactive) | 17.3 µM (inactive) | 23.4 µM (inactive) | 22.5 µM (inactive) | 28.1 µM (inactive) | 99.3 µM (inactive) | 18.1 µM (inactive) | > 100 µM (inactive) | 34.4 µM (inactive) | 37.4 µM (inactive) | 28.1 µM (inactive) | 17.1 µM (inactive) | 30.5 µM (inactive) | 23.8 µM (inactive) | 58.6 µM (inactive) | 11.9 µM (inactive) | > 100 µM (inactive) | 23.1 µM (inactive)
CC[C@@]1(O)C(=O)OCc2c1cc1n(c2=O)Cc2c-1nc1ccccc1c2/C=N\NC(=O)C(N)Cc1c[nH]cn1 (stereo not given in full) | 2.1 µM (inactive) | 2.38 µM (inactive) | 3.95 µM (inactive) | 1.9 µM (inactive) | 0.111 µM (active) | 0.324 µM (active) | 0.452 µM (active) | 0.181 µM (active) | 0.148 µM (active) | 3.45 µM (inactive) | > 64.9 µM (inactive) | 0.213 µM (active) | 0.644 µM (active) | 8.39 µM (inactive) | 0.0776 µM (active) | 0.158 µM (active) | 0.0524 µM (active) | 2.53 µM (inactive) | 0.571 µM (active) | 0.41 µM (active)
COc1ccc(S(=O)(=O)N2C(=O)CCC2C(=O)NN)cc1 (stereo not given) | > 100 µM (inactive) | > 100 µM (inactive) | > 100 µM (inactive) | > 100 µM (inactive) | > 100 µM (inactive) | > 100 µM (inactive) | > 100 µM (inactive) | > 100 µM (inactive) | > 100 µM (inactive) | > 100 µM (inactive) | 61.8 µM (inactive) | > 100 µM (inactive) | > 100 µM (inactive) | > 100 µM (inactive) | > 100 µM (inactive) | > 100 µM (inactive) | > 100 µM (inactive) | > 100 µM (inactive) | > 100 µM (inactive) | > 100 µM (inactive)
CCn1ncc(Oc2c(Cl)cc(N)cc2Cl)c(Cl)c1=O | 25.3 µM (inactive) | 34.8 µM (inactive) | 17.2 µM (inactive) | 29.9 µM (inactive) | 30.5 µM (inactive) | 30.1 µM (inactive) | 30.5 µM (inactive) | 60.8 µM (inactive) | 37.2 µM (inactive) | 25.6 µM (inactive) | 22.5 µM (inactive) | 41.5 µM (inactive) | 35.9 µM (inactive) | 22.7 µM (inactive) | 34.1 µM (inactive) | 50.2 µM (inactive) | 44.9 µM (inactive) | 32.9 µM (inactive) | 40.3 µM (inactive) | 31 µM (inactive)
C(=C(c1ccc(OC2CCCCO2)cc1)c1ccc(OC2CCCCO2)cc1)c1ccccc1 (stereo not given) | 0.386 µM (active) | 0.156 µM (active) | 0.577 µM (active) | 0.634 µM (active) | 0.546 µM (active) | 0.697 µM (active) | 0.522 µM (active) | 0.838 µM (active) | 0.54 µM (active) | 0.543 µM (active) | 1.13 µM (inactive) | 0.519 µM (active) | 0.469 µM (active) | 0.583 µM (active) | 0.792 µM (active) | 0.526 µM (active) | 0.925 µM (active) | 0.863 µM (active) | 1.21 µM (inactive) | 0.883 µM (active)
Cc1ccc(S(=O)(=O)Nc2cc(O)nc3c2CCC3)cc1 | > 100 µM (inactive) | > 100 µM (inactive) | > 100 µM (inactive) | > 100 µM (inactive) | > 100 µM (inactive) | > 100 µM (inactive) | > 100 µM (inactive) | > 100 µM (inactive) | > 100 µM (inactive) | > 100 µM (inactive) | > 100 µM (inactive) | > 100 µM (inactive) | > 100 µM (inactive) | > 100 µM (inactive) | > 100 µM (inactive) | > 100 µM (inactive) | > 100 µM (inactive) | > 100 µM (inactive) | > 100 µM (inactive) | > 100 µM (inactive)
O=C1C(/N=N/c2ccc(-c3nc4ccccc4o3)cc2)NC(=S)N1c1ccccc1 (stereo not given) | > 100 µM (inactive) | > 100 µM (inactive) | 23.6 µM (inactive) | 32.8 µM (inactive) | > 100 µM (inactive) | 62.7 µM (inactive) | > 100 µM (inactive) | 37.4 µM (inactive) | 32.3 µM (inactive) | > 100 µM (inactive) | > 100 µM (inactive) | > 100 µM (inactive) | > 100 µM (inactive) | > 100 µM (inactive) | > 100 µM (inactive) | 22.9 µM (inactive) | > 100 µM (inactive) | > 100 µM (inactive) | > 100 µM (inactive) | 73.5 µM (inactive)
O=C(/C=C/c1ccc(O)c(O)c1)NC(CO)C(=O)O (stereo not given) | > 100 µM (inactive) | > 100 µM (inactive) | > 100 µM (inactive) | > 100 µM (inactive) | > 100 µM (inactive) | > 100 µM (inactive) | > 100 µM (inactive) | > 100 µM (inactive) | > 100 µM (inactive) | > 100 µM (inactive) | > 100 µM (inactive) | > 100 µM (inactive) | > 100 µM (inactive) | > 100 µM (inactive) | > 100 µM (inactive) | > 100 µM (inactive) | > 100 µM (inactive) | > 100 µM (inactive) | > 100 µM (inactive) | 2.59 µM (inactive)
c1ccc(CSCCc2ccncc2)cc1 | > 100 µM (inactive) | > 100 µM (inactive) | > 100 µM (inactive) | > 100 µM (inactive) | > 100 µM (inactive) | > 100 µM (inactive) | > 100 µM (inactive) | > 100 µM (inactive) | > 100 µM (inactive) | > 100 µM (inactive) | > 100 µM (inactive) | > 100 µM (inactive) | > 100 µM (inactive) | > 100 µM (inactive) | > 100 µM (inactive) | 90.6 µM (inactive) | > 100 µM (inactive) | > 100 µM (inactive) | > 100 µM (inactive) | > 100 µM (inactive)
CCN(C(C)=O)c1cnc(/C=N/NC(N)=S)c2ccccc12 | 3.49 µM (inactive) | 2.94 µM (inactive) | 2.58 µM (inactive) | 7.01 µM (inactive) | 3.36 µM (inactive) | 2.58 µM (inactive) | 4.01 µM (inactive) | 2.06 µM (inactive) | 5.68 µM (inactive) | 5 µM (inactive) | 80.5 µM (inactive) | 1.61 µM (inactive) | 4.15 µM (inactive) | 4.83 µM (inactive) | 3.85 µM (inactive) | 5.69 µM (inactive) | 5.61 µM (inactive) | 11.4 µM (inactive) | 3.44 µM (inactive) | 10.6 µM (inactive)
